In ChEMBL document CHEMBL5291721, “A preclinical secondary pharmacology resource illuminates target-adverse drug reaction associations of marketed drugs” (Nat Commun, 2023):

What was measured:
[1] = target: Sodium-dependent noradrenaline transporter (Homo sapiens, UniProt P23975)
Motilin receptor = Motilin receptor (Homo sapiens, UniProt O43193)
Histamine H1 receptor = Histamine H1 receptor (Homo sapiens, UniProt P35367)
Adenosine receptor A1 = target: T1, Adenosine receptor A1 (Homo sapiens, UniProt P30542)
T1 sequence (P30542 whole entry): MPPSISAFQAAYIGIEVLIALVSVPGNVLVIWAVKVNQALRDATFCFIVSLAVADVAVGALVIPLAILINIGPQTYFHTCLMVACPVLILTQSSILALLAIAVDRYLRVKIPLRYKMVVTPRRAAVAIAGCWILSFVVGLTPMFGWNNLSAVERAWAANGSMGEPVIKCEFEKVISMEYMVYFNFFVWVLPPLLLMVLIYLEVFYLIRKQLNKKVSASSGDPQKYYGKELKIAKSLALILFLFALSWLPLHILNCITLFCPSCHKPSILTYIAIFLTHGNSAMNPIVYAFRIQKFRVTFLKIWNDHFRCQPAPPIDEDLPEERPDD

[2] = target: T2, Neuropeptide Y receptor type 1 (Homo sapiens, UniProt P25929)
T2 sequence (P25929 whole entry): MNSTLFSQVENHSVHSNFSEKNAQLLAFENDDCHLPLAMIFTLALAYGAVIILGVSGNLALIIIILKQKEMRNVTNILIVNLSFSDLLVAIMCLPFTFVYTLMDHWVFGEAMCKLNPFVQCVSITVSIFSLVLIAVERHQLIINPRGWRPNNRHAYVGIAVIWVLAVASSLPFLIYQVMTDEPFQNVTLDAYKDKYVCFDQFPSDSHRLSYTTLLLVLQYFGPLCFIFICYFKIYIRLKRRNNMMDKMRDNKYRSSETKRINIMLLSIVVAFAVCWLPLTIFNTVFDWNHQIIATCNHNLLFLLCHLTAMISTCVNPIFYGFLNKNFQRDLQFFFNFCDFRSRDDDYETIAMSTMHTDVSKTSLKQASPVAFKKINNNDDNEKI

[3] = target: Glutamate receptor ionotropic, NMDA 1 (Rattus norvegicus, UniProt P35439)
Thromboxane A2 receptor = target: T3, Thromboxane A2 receptor (Homo sapiens, UniProt P21731)
T3 sequence (P21731 whole entry): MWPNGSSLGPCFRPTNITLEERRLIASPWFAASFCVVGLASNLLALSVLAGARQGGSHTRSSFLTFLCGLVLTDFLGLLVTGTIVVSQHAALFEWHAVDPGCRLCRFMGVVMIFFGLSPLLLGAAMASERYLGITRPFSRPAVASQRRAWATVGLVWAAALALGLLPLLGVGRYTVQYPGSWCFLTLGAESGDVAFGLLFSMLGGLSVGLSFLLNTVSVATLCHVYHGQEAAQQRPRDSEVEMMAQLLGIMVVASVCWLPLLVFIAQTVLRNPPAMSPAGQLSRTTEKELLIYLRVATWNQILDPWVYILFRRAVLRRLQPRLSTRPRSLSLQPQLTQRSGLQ

Melanocortin receptor 3 = Melanocortin receptor 3 (Homo sapiens, UniProt P41968)
Adenosine receptor A3 = target: T4, Adenosine receptor A3 (Homo sapiens, UniProt P0DMS8)
T4 sequence (P0DMS8 whole entry): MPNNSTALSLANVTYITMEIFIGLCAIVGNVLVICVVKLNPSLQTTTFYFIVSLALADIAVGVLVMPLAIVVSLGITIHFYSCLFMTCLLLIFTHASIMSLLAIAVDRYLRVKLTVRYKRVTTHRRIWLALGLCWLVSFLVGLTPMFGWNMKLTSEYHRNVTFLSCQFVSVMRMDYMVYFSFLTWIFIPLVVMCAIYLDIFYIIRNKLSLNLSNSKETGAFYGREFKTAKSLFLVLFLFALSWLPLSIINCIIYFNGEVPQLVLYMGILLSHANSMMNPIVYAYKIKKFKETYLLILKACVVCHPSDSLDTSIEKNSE

[4] = target: T5, Alpha-2B adrenergic receptor (Homo sapiens, UniProt P18089)
T5 sequence (P18089 whole entry): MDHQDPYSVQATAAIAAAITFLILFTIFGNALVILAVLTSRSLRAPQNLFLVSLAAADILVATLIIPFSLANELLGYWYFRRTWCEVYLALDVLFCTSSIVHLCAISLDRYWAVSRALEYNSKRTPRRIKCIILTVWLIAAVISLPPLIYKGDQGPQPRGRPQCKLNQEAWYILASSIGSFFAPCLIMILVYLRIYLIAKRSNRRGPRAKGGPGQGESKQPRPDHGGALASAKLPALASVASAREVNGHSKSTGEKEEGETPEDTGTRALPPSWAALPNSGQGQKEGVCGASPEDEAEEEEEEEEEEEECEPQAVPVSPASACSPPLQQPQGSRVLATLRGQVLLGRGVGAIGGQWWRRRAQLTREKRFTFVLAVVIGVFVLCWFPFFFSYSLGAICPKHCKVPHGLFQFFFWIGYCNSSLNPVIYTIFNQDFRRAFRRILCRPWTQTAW

[5] = target: Sodium-dependent dopamine transporter (Homo sapiens, UniProt Q01959)
Histamine H2 receptor = Histamine H2 receptor (Homo sapiens, UniProt P25021); assay type: functional, cell-based
Cannabinoid receptor 1 = Cannabinoid receptor 1 (Homo sapiens, UniProt P21554); assay type: functional, cell-based
[6] = target: T6, Alpha-1A adrenergic receptor (Homo sapiens, UniProt P35348); assay type: functional, cell-based
T6 sequence (P35348 whole entry): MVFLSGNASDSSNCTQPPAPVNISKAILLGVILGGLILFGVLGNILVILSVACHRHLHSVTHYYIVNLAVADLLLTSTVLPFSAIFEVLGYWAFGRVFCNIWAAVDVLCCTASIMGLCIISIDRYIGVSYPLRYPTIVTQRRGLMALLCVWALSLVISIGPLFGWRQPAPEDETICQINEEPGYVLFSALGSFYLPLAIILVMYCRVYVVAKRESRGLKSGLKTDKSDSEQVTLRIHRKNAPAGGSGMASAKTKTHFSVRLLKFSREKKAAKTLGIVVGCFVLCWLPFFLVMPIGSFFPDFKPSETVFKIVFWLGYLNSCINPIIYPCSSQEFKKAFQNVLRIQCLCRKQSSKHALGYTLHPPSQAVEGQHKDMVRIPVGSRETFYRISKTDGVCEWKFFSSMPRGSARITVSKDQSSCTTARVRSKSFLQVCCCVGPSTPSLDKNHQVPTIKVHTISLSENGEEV
Also: assay procedure not described here.

Sodium-dependent noradrenaline transporter, sequence (P23975 whole entry): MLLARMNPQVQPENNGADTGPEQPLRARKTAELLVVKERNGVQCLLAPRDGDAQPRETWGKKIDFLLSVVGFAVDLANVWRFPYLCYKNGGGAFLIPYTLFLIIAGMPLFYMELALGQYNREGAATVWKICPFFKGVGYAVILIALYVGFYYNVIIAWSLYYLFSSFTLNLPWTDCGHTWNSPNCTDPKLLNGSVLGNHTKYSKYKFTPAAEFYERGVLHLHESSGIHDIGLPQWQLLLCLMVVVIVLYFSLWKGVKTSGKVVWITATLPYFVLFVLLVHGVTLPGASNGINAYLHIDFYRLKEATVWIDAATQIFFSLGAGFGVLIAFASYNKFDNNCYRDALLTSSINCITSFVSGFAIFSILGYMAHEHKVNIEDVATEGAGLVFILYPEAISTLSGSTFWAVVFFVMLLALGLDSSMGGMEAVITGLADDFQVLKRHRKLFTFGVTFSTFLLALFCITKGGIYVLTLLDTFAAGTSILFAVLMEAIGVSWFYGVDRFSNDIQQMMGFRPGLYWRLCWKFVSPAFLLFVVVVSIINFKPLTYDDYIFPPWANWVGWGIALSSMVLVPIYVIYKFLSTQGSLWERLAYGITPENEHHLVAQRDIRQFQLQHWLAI
Cannabinoid receptor 1, sequence (P21554 whole entry): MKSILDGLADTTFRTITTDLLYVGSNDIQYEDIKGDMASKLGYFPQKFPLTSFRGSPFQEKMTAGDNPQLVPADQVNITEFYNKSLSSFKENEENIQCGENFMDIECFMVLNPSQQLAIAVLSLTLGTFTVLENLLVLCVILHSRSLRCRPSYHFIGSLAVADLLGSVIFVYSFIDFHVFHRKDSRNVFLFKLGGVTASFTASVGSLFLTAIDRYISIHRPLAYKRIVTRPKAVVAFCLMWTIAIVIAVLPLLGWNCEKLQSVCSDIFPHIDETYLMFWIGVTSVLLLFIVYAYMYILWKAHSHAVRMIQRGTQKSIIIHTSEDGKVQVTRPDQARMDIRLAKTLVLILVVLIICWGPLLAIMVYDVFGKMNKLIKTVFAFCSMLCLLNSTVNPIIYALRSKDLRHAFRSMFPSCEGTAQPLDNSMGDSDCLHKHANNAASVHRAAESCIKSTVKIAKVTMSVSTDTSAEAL
Histamine H2 receptor, sequence (P25021 whole entry): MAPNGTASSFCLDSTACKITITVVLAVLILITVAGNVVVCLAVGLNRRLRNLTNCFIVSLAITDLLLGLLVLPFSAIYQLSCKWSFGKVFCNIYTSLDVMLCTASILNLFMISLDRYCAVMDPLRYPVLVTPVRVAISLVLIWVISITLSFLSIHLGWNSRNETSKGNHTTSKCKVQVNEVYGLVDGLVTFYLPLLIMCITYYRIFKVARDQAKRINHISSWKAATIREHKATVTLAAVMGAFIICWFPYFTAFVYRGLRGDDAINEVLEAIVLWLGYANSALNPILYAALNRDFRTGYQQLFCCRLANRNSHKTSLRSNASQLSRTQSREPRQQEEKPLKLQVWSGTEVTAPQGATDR
Motilin receptor, sequence (O43193 whole entry): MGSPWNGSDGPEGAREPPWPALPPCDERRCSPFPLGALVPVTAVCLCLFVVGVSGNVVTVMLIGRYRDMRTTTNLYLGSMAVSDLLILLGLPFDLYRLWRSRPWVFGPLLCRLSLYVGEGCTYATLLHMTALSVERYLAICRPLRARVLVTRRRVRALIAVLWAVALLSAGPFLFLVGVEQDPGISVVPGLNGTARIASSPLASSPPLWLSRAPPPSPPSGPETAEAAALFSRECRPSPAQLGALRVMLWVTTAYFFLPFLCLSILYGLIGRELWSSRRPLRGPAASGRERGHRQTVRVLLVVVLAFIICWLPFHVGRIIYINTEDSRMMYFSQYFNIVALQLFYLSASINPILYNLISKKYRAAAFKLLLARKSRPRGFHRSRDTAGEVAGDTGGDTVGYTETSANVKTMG
Histamine H1 receptor, sequence (P35367 whole entry): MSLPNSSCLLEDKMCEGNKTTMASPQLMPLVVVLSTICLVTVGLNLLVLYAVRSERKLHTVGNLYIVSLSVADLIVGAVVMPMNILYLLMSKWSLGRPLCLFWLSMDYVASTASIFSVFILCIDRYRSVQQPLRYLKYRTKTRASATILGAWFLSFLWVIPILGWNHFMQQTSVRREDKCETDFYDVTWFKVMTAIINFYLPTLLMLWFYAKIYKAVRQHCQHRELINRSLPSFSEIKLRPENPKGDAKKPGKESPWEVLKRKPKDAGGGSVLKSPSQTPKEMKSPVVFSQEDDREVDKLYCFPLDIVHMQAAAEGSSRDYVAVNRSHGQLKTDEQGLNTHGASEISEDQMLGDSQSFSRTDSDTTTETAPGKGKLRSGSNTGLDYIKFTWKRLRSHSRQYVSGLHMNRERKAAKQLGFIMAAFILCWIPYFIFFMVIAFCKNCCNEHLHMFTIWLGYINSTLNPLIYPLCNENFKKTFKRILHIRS
Sodium-dependent dopamine transporter, sequence (Q01959 whole entry): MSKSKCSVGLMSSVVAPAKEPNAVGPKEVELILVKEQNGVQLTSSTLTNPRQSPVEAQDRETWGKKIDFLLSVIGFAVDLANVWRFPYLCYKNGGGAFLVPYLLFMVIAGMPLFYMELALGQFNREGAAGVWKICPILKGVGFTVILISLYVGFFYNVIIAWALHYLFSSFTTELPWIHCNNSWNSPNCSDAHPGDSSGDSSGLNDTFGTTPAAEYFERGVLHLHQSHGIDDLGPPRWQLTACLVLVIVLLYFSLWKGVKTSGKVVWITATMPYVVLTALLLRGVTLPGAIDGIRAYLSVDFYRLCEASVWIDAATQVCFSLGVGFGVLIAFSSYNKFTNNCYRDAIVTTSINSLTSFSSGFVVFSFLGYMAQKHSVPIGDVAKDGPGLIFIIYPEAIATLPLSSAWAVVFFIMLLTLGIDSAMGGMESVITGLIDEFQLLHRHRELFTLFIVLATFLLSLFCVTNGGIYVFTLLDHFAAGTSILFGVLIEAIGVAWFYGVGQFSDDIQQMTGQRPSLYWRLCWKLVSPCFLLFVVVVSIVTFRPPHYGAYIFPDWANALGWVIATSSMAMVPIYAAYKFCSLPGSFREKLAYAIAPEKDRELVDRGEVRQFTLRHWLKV
Melanocortin receptor 3, sequence (P41968 whole entry): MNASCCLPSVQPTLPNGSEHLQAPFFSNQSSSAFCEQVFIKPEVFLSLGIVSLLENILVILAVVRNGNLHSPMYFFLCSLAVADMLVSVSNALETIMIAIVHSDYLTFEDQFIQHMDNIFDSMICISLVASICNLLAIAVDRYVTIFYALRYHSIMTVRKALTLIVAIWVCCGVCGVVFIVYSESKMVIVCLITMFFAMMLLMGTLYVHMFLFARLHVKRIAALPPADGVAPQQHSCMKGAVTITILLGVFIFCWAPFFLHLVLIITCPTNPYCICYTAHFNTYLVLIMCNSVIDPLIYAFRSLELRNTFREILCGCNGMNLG

SMILES	AC50 [1]	AC50 (Motilin receptor)	AC50 (Histamine H1 receptor)	AC50 (Adenosine receptor A1)	AC50 [2]	AC50 [3]	AC50 (Thromboxane A2 receptor)	AC50 (Melanocortin receptor 3)	AC50 (Adenosine receptor A3)	AC50 [4]	AC50 [5]	AC50 (Histamine H2 receptor)	AC50 (Cannabinoid receptor 1)	AC50 [6]
CN1C(=O)CC(=O)N(c2ccccc2)c2cc(Cl)ccc21 [CLOBAZAM]	> 10 µM	> 10 µM	> 10 µM	> 10 µM	> 10 µM	> 10 µM	> 10 µM	> 10 µM	> 10 µM	> 10 µM	> 10 µM	> 10 µM		
C#CC1(OC(N)=O)CCCCC1 [ETHINAMATE]	> 10 µM	> 10 µM	> 10 µM	> 10 µM	> 10 µM	> 10 µM	> 10 µM	> 10 µM	> 10 µM	> 10 µM	> 10 µM	> 10 µM		
Cc1c(C(=O)Nc2ccc(N3C[C@@H](C)O[C@@H](C)C3)nc2)cccc1-c1ccc(OC(F)(F)F)cc1 [SONIDEGIB]	> 10 µM	> 10 µM	> 10 µM	> 30 µM	> 30 µM	> 10 µM	> 30 µM	> 30 µM	> 30 µM	> 10 µM	> 10 µM			
O=C(CCCCC(=O)Nc1c(I)cc(I)c(C(=O)O)c1I)Nc1c(I)cc(I)c(C(=O)O)c1I [IODIPAMIDE]	> 10 µM	> 10 µM	> 10 µM	> 10 µM	> 10 µM	> 10 µM	> 10 µM	> 10 µM	> 10 µM	> 10 µM	> 10 µM	> 30 µM		
CN1C(=O)COc2c(C(=O)NC3CN4CCC3CC4)cc(Cl)cc21 (centres undefined) [AZASETRON]	> 30 µM	> 30 µM		> 30 µM	> 30 µM	> 30 µM	> 30 µM	> 30 µM	> 30 µM		> 30 µM	> 30 µM	> 30 µM	> 30 µM
CC(C)(Oc1ccc(C2CC2(Cl)Cl)cc1)C(=O)O (centres undefined) [CIPROFIBRATE]	> 30 µM	> 30 µM		> 30 µM	> 30 µM	> 30 µM	> 30 µM	> 30 µM	> 30 µM		> 30 µM	> 30 µM	> 30 µM	> 30 µM
C#CCN(C)[C@H](C)Cc1ccccc1 [SELEGILINE]	> 10 µM	> 10 µM		> 10 µM	> 10 µM	> 10 µM	> 10 µM	> 10 µM	> 10 µM		> 10 µM	> 10 µM	> 30 µM	> 30 µM
C#CCN[C@@H]1CCc2ccccc21 [RASAGILINE]	> 30 µM	> 30 µM	> 30 µM	> 30 µM	> 30 µM	> 30 µM	> 30 µM	> 30 µM	> 30 µM	8.79 µM	> 30 µM	> 30 µM		
CC(=O)OCC(=O)[C@@]12OC3(CCCC3)O[C@@H]1C[C@H]1[C@@H]3CCC4=CC(=O)C=C[C@]4(C)[C@@]3(F)[C@@H](O)C[C@@]12C [AMCINONIDE]	> 10 µM	> 10 µM	> 10 µM	> 10 µM	> 10 µM	> 10 µM	> 10 µM	> 10 µM	> 10 µM	> 10 µM	> 10 µM	> 10 µM		
CN1CCc2cccc3c2[C@H]1Cc1ccc(O)c(O)c1-3 [APOMORPHINE]	> 30 µM	> 10 µM	15 µM	> 30 µM	> 20 µM	> 10 µM	> 30 µM	> 30 µM	0.67 µM		> 30 µM	> 10 µM	> 30 µM	
CN1CC[C@]23CCCC[C@H]2[C@H]1Cc1ccc(O)cc13 [LEVORPHANOL]	> 30 µM	> 10 µM	> 30 µM	> 10 µM	> 10 µM	0.652 µM	> 10 µM	> 10 µM	> 10 µM	> 30 µM	> 30 µM	> 30 µM		
COc1c(C)c2c(c(O)c1C/C=C(\C)CCC(=O)OCCN1CCOCC1)C(=O)OC2 [MYCOPHENOLATE MOFETIL]	> 30 µM	> 30 µM		> 30 µM	> 30 µM	> 30 µM	> 30 µM	> 30 µM	> 30 µM		> 30 µM	> 30 µM	> 30 µM	> 30 µM
CC(=O)NS(=O)(=O)c1ccc(N)cc1 [SULFACETAMIDE]	> 10 µM	> 10 µM	> 10 µM	> 10 µM	> 10 µM	> 10 µM	> 10 µM	> 10 µM	> 10 µM	> 10 µM	> 10 µM	> 10 µM		
CC1=CC(=O)c2ccccc2C1=O [MENADIONE]	> 10 µM	> 10 µM	> 30 µM	> 30 µM	> 10 µM	> 10 µM	> 10 µM	> 10 µM	13.7 µM	> 10 µM	> 10 µM	> 30 µM		
Cc1c(O)c(=O)ccn1C [DEFERIPRONE]	> 30 µM	> 30 µM		> 30 µM	> 30 µM	> 30 µM	> 30 µM	> 30 µM	> 30 µM		> 30 µM	> 30 µM	> 30 µM	> 30 µM
